Results from US10597388B2, “Pyridazinone herbicides” (FMC CORPORATION, priority 2014, dated 2020).

Columns and labels:
Format in all cases: in vivo
[1] = tested on: wheat (Triticum aestivum); assay: Test A greenhouse herbicide test, pre- and postemergence; conditions: Postemergence
How it was run: (§1)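 Seeds in loam–sand blend received a preemergence directed soil spray; plants at 2–10 cm, one- to two-leaf stage, received postemergence sprays. Compounds in a non-phytotoxic solvent with surfactant. After about 10 d in a greenhouse, injury rated visually versus untreated controls on a 0–100 scale (100 = complete control).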

[2] = tested on: pigweed (Amaranthus retroflexus); assay: as above
How it was run: as §1

[3] = tested on: ryegrass, Italian (Italian ryegrass, Lolium multiflorum); assay: as above
How it was run: as §1

[4] = tested on: waterhemp (common waterhemp, Amaranthus rudis); assay: Test C greenhouse herbicide test, pre- and postemergence
How it was run: (§2)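 Pre- and postemergence greenhouse screen; values are visual control ratings, 0 meaning no effect and 100 complete kill, assigned relative to untreated plants after 13 to 15 d.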

[5] = tested on: ragweed (common ragweed, Ambrosia elatior); assay: as above
How it was run: as §2

[6] = tested on: lambsquarters (Chenopodium album); assay: as above
How it was run: as §2

[7] = tested on: morningglory (Ipomoea coccinea); assay: as above
How it was run: as §2

[8] = tested on: pigweed (Amaranthus retroflexus); assay: as above
How it was run: as §2

[9] = tested on: oilseed rape (Brassica napus); assay: as above
How it was run: as §2

[10] = tested on: galium (catchweed bedstraw, Galium aparine); assay: Test A greenhouse herbicide test, postemergence
How it was run: (§3)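 Visual injury score, 0 (no effect) to 100 (complete control), versus untreated controls roughly 10 d after postemergence spray; plants at one- to two-leaf stage, 2 to 10 cm tall, in loam soil and sand, kept in greenhouse.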

[11] = tested on: blackgrass (Alopecurus myosuroides); assay: Test A greenhouse herbicide test, postemergence
How it was run: as §3

[12] = 125 g ai/ha, 0 to 100 scale where 0 is no effect and 100 is complete control
[13] = 500 g ai/ha, visual rating after approx. 10 d, 0 to 100 scale (0 no effect, 100 complete control)
[14] = Postemergence, 125 g ai/ha, 0 to 100 scale where 0 is no effect and 100 is complete control
[15] = Postemergence, 500 g ai/ha, visual rating after approx. 10 d, 0 to 100 scale (0 no effect, 100 complete control)
[16] = Preemergence, 125 g ai/ha, 0 to 100 scale where 0 is no effect and 100 is complete control
[17] = Preemergence, 500 g ai/ha, 0 to 100 scale where 0 is no effect and 100 is complete control
[18] = Postemergence, 31 g ai/ha, scale 0 to 100 (0 no effect, 100 complete control)
[19] = Postemergence, 62 g ai/ha, 0 to 100 scale (0 no effect, 100 complete control)
[20] = Postemergence, 250 g ai/ha, scale 0 to 100, 0 no effect, 100 complete control, 13 to 15 d
[21] = Preemergence, 31 g ai/ha, scale 0 to 100, 0 is no effect, 100 is complete control
[22] = Preemergence, 62 g ai/ha, scale 0 to 100, 0 is no effect, 100 is complete control
[23] = Preemergence, 125 g ai/ha, scale 0 to 100, 0 is no effect, 100 is complete control
[24] = Preemergence, 250 g ai/ha, scale 0 to 100, 0 no effect, 100 complete control
[25] = postemergence, 125 g ai/ha, scale 0 to 100, 0 no effect, 100 complete control

CCC(=O)Oc1c(C)nn(C)c(=O)c1-c1ccc(Br)c2ccccc12 [Compound 134]
60: Plant response rating, Blackgrass [11, 12]
95: Plant response rating, Ragweed [5, 22] | Plant response rating, Ragweed [5, 23] | Plant response rating, Morningglory [7, 23] | Plant response rating, Oilseed Rape [9, 18]
75: Plant response rating, Lambsquarters [6, 21] | Plant response rating, Morningglory [7, 21] | Plant response rating, Pigweed [8, 21]
98: Plant response rating, Waterhemp [4, 18] | Plant response rating, Waterhemp [4, 22] | Plant response rating, Waterhemp [4, 23] | Ragweed plant response rating [5, 24] | Lambsquarters plant response rating [6, 19] | Plant response rating, Morningglory [7, 18] | Oilseed Rape plant response rating [9, 24]
90: Plant response rating, Pigweed [2, 14] | Plant response rating, Waterhemp [4, 21] | Plant response rating, Lambsquarters [6, 22] | Plant response rating, Morningglory [7, 22] | Plant response rating, Oilseed Rape [9, 22] | Plant response rating, Oilseed Rape [9, 23]
100: Plant response rating, Pigweed [2, 15] | Pigweed plant response rating [2, 16] | Plant response rating, Pigweed [2, 17] | Plant response rating, Ryegrass, Italian [3, 14] | Plant response rating, Ryegrass, Italian [3, 15] | Ryegrass, Italian plant response rating [3, 16] | Plant response rating, Ryegrass, Italian [3, 17] | Waterhemp plant response rating [4, 19] | Plant response rating, Waterhemp [4, 20] | Waterhemp plant response rating [4, 24] | Waterhemp plant response rating [4, 25] | Plant response rating, Lambsquarters [6, 18] | Plant response rating, Lambsquarters [6, 20] | Plant response rating, Lambsquarters [6, 23] | Lambsquarters plant response rating [6, 24] | Lambsquarters plant response rating [6, 25] | Morningglory plant response rating [7, 19] | Plant response rating, Morningglory [7, 20] | Morningglory plant response rating [7, 24] | Morningglory plant response rating [7, 25] | Pigweed plant response rating [8, 19] | Plant response rating, Pigweed [8, 20] | Plant response rating, Pigweed [8, 22] | Plant response rating, Pigweed [8, 23] | Pigweed plant response rating [8, 24] | Pigweed plant response rating [8, 25] | Oilseed Rape plant response rating [9, 19] | Plant response rating, Oilseed Rape [9, 20] | Oilseed Rape plant response rating [9, 25] | Plant response rating, Galium [10, 12] | Plant response rating, Galium [10, 13]
0: Plant response rating, Ragweed [5, 18]
5: Ragweed plant response rating [5, 19] | Ragweed plant response rating [5, 25]
30: Plant response rating, Wheat [1, 12] | Plant response rating, Wheat [1, 13] | Plant response rating, Ragweed [5, 20]
80: Plant response rating, Pigweed [8, 18]
70: Plant response rating, Ragweed [5, 21] | Plant response rating, Blackgrass [11, 13]
55: Plant response rating, Oilseed Rape [9, 21]

COC(=O)Oc1c(OC)nn(C)c(=O)c1-c1c(C)ccc2ccccc12 [Compound 136]
90: Plant response rating, Pigweed [2, 14] | Plant response rating, Ryegrass, Italian [3, 14] | Ryegrass, Italian plant response rating [3, 16] | Plant response rating, Lambsquarters [6, 18] | Lambsquarters plant response rating [6, 19] | Plant response rating, Lambsquarters [6, 22] | Plant response rating, Oilseed Rape [9, 23] | Plant response rating, Blackgrass [11, 13]
85: Pigweed plant response rating [8, 25]
0: Plant response rating, Wheat [1, 12] | Plant response rating, Ragweed [5, 18] | Ragweed plant response rating [5, 19] | Ragweed plant response rating [5, 25]
60: Plant response rating, Blackgrass [11, 12]
80: Plant response rating, Waterhemp [4, 18] | Waterhemp plant response rating [4, 19] | Plant response rating, Morningglory [7, 21] | Pigweed plant response rating [8, 19]
75: Plant response rating, Pigweed [8, 18]
10: Plant response rating, Oilseed Rape [9, 21]
95: Waterhemp plant response rating [4, 25] | Plant response rating, Ragweed [5, 21] | Plant response rating, Lambsquarters [6, 21] | Lambsquarters plant response rating [6, 25] | Plant response rating, Morningglory [7, 22] | Plant response rating, Oilseed Rape [9, 18]
5: Plant response rating, Ragweed [5, 20]
100: Plant response rating, Pigweed [2, 15] | Pigweed plant response rating [2, 16] | Plant response rating, Pigweed [2, 17] | Plant response rating, Ryegrass, Italian [3, 15] | Plant response rating, Ryegrass, Italian [3, 17] | Plant response rating, Waterhemp [4, 20] | Plant response rating, Waterhemp [4, 22] | Waterhemp plant response rating [4, 24] | Plant response rating, Ragweed [5, 23] | Ragweed plant response rating [5, 24] | Plant response rating, Lambsquarters [6, 20] | Plant response rating, Lambsquarters [6, 23] | Lambsquarters plant response rating [6, 24] | Plant response rating, Morningglory [7, 20] | Morningglory plant response rating [7, 25] | Plant response rating, Pigweed [8, 21] | Plant response rating, Pigweed [8, 22] | Plant response rating, Pigweed [8, 23] | Pigweed plant response rating [8, 24] | Oilseed Rape plant response rating [9, 24] | Plant response rating, Galium [10, 12] | Plant response rating, Galium [10, 13]
98: Plant response rating, Waterhemp [4, 21] | Plant response rating, Waterhemp [4, 23] | Plant response rating, Ragweed [5, 22] | Plant response rating, Morningglory [7, 18] | Morningglory plant response rating [7, 19] | Plant response rating, Morningglory [7, 23] | Morningglory plant response rating [7, 24] | Plant response rating, Pigweed [8, 20] | Oilseed Rape plant response rating [9, 19] | Plant response rating, Oilseed Rape [9, 20] | Oilseed Rape plant response rating [9, 25]
30: Plant response rating, Wheat [1, 13] | Plant response rating, Oilseed Rape [9, 22]
